# From ChEMBL document CHEMBL1201862, “PubChem BioAssay data set” (2004)
# Calls of active or inactive are those of the source. Rule as the data show it, for most assays here: actives have a measured EC50 and inactives only a lower limit.
# Columns and labels:
# [1] = system: Streptococcus sp. 'group A'; test: growth inhibition of control SK(-) GAS strain, dose response, counter-screen for streptokinase expression inhibitor project, luminescence, kanamycin, BacTiterGlo, confirmation (AID 1900); type: functional, organism-based
# [2] = system: Streptococcus; test: Group A Streptococcus viability loss, dose response, counter-screen for streptokinase expression inhibitor project, luminescence, BacTiterGlo (AID 1915); type: functional, organism-based;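 also: potency for reduction of bacterial viability or growth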
# [3] = biological target: T1, Streptokinase A (Streptococcus pyogenes serotype M1, UniProt P10520); test: S. pyogenes streptokinase expression inhibitors, potency, dose response, plasminogen activation absorbance, OD405 (AID 1914); type: functional, Streptococcus pyogenes M1 GAS;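 also: secreted streptokinase activity via plasminogen activation per viability signal from cell pellet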
# T1 sequence (P10520 whole entry): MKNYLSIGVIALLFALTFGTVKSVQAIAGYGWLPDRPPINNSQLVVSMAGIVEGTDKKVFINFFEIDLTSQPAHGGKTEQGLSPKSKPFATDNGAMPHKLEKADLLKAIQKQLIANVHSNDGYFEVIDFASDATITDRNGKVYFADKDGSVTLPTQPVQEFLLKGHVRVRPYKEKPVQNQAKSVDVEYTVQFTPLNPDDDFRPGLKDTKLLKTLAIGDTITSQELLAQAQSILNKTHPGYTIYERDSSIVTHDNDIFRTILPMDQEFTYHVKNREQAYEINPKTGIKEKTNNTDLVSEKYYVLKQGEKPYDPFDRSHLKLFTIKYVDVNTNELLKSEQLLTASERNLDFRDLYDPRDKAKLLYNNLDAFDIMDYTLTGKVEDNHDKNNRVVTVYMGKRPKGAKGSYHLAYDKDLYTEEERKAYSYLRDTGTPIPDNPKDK
# [4] = Luminescence Cell-Based Dose Retest to Confirm Inhibitors of Cancer Stem Cells. [Related pubchem assays (depositor defined):AID2717, AID2721]; type: functional; settings: Homo sapiens
# [5] = cytotoxicity toward NIH3T3 fibroblasts, dose response, counter-screen, cell-based, ATP luminescence, mouse fibroblasts (AID 2010); type: functional;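 also: cells exposed to compound for about 90 hours before reading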
# [6] = inhibitors of intracellular T. cruzi replication, confirmation, NIH3T3 host cells, beta-gal luminescence (AID 2044); type: functional, cell-based;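 also: intracellular parasites grown in NIH/3T3 mouse fibroblasts as host cells; luminescent beta-galactosidase reporter signal from transgenic T. cruzi replicating inside host cells; inhibitors lower the luminescence signal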
# [7] = biological target: T2, Heat shock factor protein 1 (Mus musculus, UniProt P38532); test: inhibition of MG132-induced HSE-luciferase signal, confirmation, cell-based, NIH3T3, luminescence, dose retest (AID 2382); type: functional;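 also: NIH3T3 fibroblasts with HSF1-driven luciferase reporter stressed by proteasome inhibitor MG132; luminescence from HSF1-driven luciferase expression after 8 hours of MG132 stress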
# T2 sequence (P38532 whole entry): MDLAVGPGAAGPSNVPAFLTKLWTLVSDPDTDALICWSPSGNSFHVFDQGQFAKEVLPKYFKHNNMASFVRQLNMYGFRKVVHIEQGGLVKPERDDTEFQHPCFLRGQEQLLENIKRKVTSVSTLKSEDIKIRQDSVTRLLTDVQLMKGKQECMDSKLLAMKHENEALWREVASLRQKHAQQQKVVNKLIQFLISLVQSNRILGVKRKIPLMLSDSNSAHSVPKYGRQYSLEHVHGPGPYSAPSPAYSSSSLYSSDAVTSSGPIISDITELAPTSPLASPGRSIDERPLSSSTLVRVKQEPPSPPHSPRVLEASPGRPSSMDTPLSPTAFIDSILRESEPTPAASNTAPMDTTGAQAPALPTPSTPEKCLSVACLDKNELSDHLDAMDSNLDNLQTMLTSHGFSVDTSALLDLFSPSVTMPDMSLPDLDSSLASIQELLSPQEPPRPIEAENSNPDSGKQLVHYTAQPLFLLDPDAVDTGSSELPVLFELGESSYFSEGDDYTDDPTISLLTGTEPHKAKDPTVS
# [8] = biological target: Cytochrome P450 2D6 (Homo sapiens, UniProt P10635);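 also: CYP2D6 member of a cytochrome P450 panel assay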
# Chain of Cytochrome P450 2D6 (P10635 whole entry): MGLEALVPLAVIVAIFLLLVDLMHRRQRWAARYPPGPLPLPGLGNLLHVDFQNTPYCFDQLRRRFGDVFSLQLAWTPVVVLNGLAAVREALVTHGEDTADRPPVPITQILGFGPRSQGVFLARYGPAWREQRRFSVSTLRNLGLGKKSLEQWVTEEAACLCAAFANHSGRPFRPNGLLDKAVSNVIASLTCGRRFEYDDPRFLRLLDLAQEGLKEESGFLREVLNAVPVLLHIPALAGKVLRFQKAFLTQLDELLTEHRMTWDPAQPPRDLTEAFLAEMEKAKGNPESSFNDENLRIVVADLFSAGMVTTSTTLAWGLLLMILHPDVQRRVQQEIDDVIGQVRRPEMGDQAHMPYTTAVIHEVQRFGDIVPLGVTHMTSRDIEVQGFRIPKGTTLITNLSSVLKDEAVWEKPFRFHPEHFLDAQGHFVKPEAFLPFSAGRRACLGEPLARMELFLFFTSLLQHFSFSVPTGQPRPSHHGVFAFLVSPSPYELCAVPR
# [9] = system: INS1; test: beta cell apoptosis inhibitors, cytokine rescue, dose response, luminescence, retest (AID 449756); type: functional, cell-based; settings: Rattus norvegicus;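 also: cell death triggered by IL-1 beta plus TNF-alpha plus IFN-gamma mixture; protective hits raise ATP signal compared with cytokine alone wells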
structure (smiles),measurement,setting,value
CCCCCCSc1cc(-c2nc3cnccn3c2NCc2ccccc2)ccc1OC,EC50,[1],4.3 µM (active)
same,EC50,[2],12.9 µM (active)
same,EC50,[3],16.7 µM (active)
O=C(/C=C/c1ccc(F)cc1)c1ccccc1Br,AC50,[4],3.87 µM (active)
CC(=O)NCc1ccc(C(=O)CCl)s1,EC50,[5],3.9 µM (active)
same,EC50,[6],3210 nM (active)
COc1ccc2nc(COC(=O)c3cccs3)c(C(C)=O)[n+]([O-])c2c1,EC50,[7],> 195 µM (not active)
COc1ccc(O)c(C2=Nc3ccccc3N=C(c3cccs3)C2)c1,EC50,[7],> 195 µM (not active)
CCOC(=O)Cn1nc(C)c(NC(=O)COc2ccc([N+](=O)[O-])cc2)c1C,EC50,[7],> 195 µM (not active)
C[C@@H](N)[C@@H](C)Cc1ccccc1,AC50,[8],3.98 µM (inconclusive)
COc1cc(NC(=O)CN(C)S(=O)(=O)c2ccc(-c3ccc(O)nn3)s2)cc(OC)c1,EC50,[7],> 195 µM (not active)
O=C(/C=C/c1ccc(F)cc1)c1cc(Br)ccc1O,AC50,[4],13.1 µM (active)
CCN1CCN(C(S)=Nc2sc(C)c(-c3ccccc3)c2C(=O)OC)CC1,AC50,[4],3.65 µM (active)
O=C(O)c1cccc(NC(=O)c2ccccc2NC(=O)c2ccccc2F)c1,EC50,[7],> 195 µM (not active)
CCN(CCCNC(=O)CCCOc1cc(=O)n(C)c2ccccc12)Cc1ccccc1,EC50,[5],> 60 µM (not active)
same,EC50,[6],281 nM (active)
CSc1nnc2ccc(-c3ccc(C)cc3)nn12,EC50,[1],> 150 µM (not active)
same,EC50,[2],> 150 µM (not active)
same,EC50,[3],> 150 µM (not active)
COc1ccccc1NS(=O)(=O)c1ccc(C)c(C(N)=O)c1,EC50,[7],> 195 µM (not active)
CCOC(=O)c1cccc(-[n+]2c(-c3ccccc3)cc(-c3ccccc3)cc2-c2ccccc2)c1.[O-][Cl+3]([O-])([O-])[O-],AC50,[9],2.68 µM (active)
C/C(=N\Nc1nc(C(C)(C)C)cs1)c1ccccc1,EC50,[5],> 30 µM (not active)
same,EC50,[6],673 nM (active)
COc1ccc(Cl)cc1N(CC(=O)N1CCN(Cc2ccccc2)CC1)S(C)(=O)=O,EC50,[7],> 195 µM (not active)
CC(C)(C)c1ccc(Oc2cccc(C3CC(=O)C(C4NCCc5ccccc54)C(=O)C3n3cncn3)c2)cc1 (stereo not drawn),EC50,[1],71.1 µM (active)
same,EC50,[2],> 150 µM (not active)
same,EC50,[3],> 150 µM (not active)
CCOc1ccc(CN2CCC(n3nccc3NC(=O)c3ccccc3OC)CC2)cc1,EC50,[5],> 60 µM (not active)
same,EC50,[6],997 nM (active)
Cc1ccc(CSCCNS(=O)(=O)c2ccc([N+](=O)[O-])cc2)cc1,EC50,[5],> 60 µM (not active)
same,EC50,[6],939 nM (active)
CCOC(=O)N1CCN(C(=O)C(CC)n2nc(C)c3sc4ccccc4c3c2=O)CC1 (stereo not drawn),AC50,[8],39.8 µM (inconclusive)
COc1cccc(Nc2nc(-c3ccccc3)nc3ccccc23)c1,AC50,[4],5.53 µM (active)
COc1ccc(S(=O)(=O)NCC(c2cccnc2)N2CCN(Cc3ccccc3)CC2)cc1C (stereo not drawn),EC50,[5],> 60 µM (not active)
same,EC50,[6],678 nM (active)
COC(=O)c1ccccc1NC(=O)c1cc2nc(C3CC3)cc(C(F)(F)F)n2n1,AC50,[8],3.16 µM (inconclusive)
Cn1cccc1C(=O)NC(=O)COC(=O)C12CC3CC(CC(O)(C3)C1)C2,EC50,[7],0.372 µM (active)
Fc1ccc(Nc2nc(N/N=C/c3ccco3)nc(N3CCCCC3)n2)cc1,EC50,[5],9.91 µM (active)
same,EC50,[6],2880 nM (active)
CCOC(=O)c1ccc(NC(=O)c2[nH]cnc2C(=O)NCCCCNC(=O)c2nc[nH]c2C(=O)Nc2ccc(C(=O)OCC)cc2)cc1,AC50,[4],2.51 µM (active)
O=C(NCC(c1cccnc1)N1CCN(c2ccccc2F)CC1)Oc1ccccc1 (stereo not drawn),EC50,[5],> 60 µM (not active)
same,EC50,[6],401 nM (active)
O=C(Nc1cccnc1)c1ccc([N+](=O)[O-])s1,AC50,[9],7.27 µM (active)
